{"source": "patent US8993117B2", "about": "“Devices with multiple surface functionality” (The Trustees of Princeton University, priority 2005, dated 2015)", "key": {"[1]": {"conditions": "pH 7; cited from earlier work"}, "αvβ3 integrins": {"target": "αvβ3 integrins (Homo sapiens, UniProt P05106+P06756)", "sequence (P06756 31-1048)": "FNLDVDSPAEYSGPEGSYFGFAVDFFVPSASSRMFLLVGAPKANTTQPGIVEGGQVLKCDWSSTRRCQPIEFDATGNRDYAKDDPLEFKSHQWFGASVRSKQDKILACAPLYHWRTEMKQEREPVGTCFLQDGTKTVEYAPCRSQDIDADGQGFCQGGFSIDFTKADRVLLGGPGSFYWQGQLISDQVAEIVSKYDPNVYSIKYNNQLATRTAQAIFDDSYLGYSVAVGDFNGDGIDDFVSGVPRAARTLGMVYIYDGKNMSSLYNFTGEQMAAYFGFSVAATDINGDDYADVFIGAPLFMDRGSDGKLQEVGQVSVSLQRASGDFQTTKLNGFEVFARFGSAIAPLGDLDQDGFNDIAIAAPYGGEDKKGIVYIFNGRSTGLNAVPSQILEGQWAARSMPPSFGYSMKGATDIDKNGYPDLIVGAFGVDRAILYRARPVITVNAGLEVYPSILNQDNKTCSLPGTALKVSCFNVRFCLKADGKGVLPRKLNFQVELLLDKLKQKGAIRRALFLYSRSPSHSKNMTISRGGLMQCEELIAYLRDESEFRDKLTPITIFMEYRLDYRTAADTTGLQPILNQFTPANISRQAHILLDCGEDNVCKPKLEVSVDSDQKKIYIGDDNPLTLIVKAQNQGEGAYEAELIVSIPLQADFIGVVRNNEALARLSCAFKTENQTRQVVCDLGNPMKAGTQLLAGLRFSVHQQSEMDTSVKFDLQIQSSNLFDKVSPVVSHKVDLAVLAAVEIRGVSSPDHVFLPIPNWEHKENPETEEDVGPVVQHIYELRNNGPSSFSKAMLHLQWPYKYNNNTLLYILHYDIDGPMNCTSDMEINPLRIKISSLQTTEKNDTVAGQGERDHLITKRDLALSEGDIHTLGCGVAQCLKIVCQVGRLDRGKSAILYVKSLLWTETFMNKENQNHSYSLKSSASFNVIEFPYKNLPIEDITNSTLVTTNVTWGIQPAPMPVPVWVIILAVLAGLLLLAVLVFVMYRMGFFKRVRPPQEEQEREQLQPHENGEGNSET", "sequence (P05106 27-788)": "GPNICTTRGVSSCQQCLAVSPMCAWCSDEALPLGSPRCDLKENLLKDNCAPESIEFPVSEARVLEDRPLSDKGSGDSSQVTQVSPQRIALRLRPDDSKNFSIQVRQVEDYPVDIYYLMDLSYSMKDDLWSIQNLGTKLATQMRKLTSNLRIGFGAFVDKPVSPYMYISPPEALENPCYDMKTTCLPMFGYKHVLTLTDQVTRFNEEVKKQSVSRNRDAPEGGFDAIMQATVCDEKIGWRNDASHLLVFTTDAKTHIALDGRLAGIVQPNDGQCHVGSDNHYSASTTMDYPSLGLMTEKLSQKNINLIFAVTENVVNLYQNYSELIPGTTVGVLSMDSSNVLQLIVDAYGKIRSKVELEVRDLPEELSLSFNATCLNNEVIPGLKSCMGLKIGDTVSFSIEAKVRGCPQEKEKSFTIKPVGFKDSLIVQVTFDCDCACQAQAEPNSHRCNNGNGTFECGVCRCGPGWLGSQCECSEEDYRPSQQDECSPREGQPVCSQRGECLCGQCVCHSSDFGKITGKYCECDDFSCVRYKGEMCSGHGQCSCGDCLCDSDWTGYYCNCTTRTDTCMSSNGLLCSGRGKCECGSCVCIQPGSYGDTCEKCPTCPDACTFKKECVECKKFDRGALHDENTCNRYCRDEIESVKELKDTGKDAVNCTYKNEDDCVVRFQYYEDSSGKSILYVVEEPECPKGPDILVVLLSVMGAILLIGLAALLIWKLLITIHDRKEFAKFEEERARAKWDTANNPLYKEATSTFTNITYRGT", "conditions": "cited from earlier work"}, "[2]": {"conditions": "one week, cited from earlier work"}, "[3]": {"experiment": "Quartz crystal microbalance (QCM) surface coverage / loading of phosphonate coatings on Ti", "type": "physicochemical", "method": "The QCM technique allows accurate, gravimetric determination of mass changes on an electrode which is deposited on a piezoelectric quartz crystal. It is, thus, ideal to monitor surface reactions of target metals when they are used as such electrodes: the QCM oscillates at a resonant frequency which is determined by the cut and mass of the crystal, and, just as for a classical oscillator, changes in electrode mass result in changes in crystal resonant frequency. […] Up to three different reference crystals (prepared in different batches) were used as received to calibrate the QCM. […] To ensure that monolayer coverage (at most) occurred on Ti surface, phosphonic acid-based films were subjected to copious rinsing followed by evacuation (≦10^−2 Torr) until a constant crystal frequency was established (within experimental noise levels of ±2 Hz).\nPiezoelectric quarts crystals (International Crystal Manufacturers [ICM]; AT-cut, 1000 Å Ti electrodes, 10 MHz, overtone polished, 0.201 in. electrode diameter) were used for film deposition and as references. […] In each experimental run, the fundamental frequency (fo) of an unreacted crystal was measured. […] A new frequency (fc) was then measured. The crystal was then subjected to rinsing followed by evacuation (≦10^−2 Torr) until a constant frequency was measured (±2 Hz), assumed to be a monolayer coverage of the Ti electrodes. […]"}, "[4]": {"experiment": "Hydrolytic stability of DANSYL-RGDC labelled diphosphonate SAM by fluorimetry", "type": "physicochemical", "conditions": "after about 96 hours at pH 7.5, cleaved at about pH 12", "description": "To further test the stability of diphosphonate SAMs towards aqueous conditions, fluorimetry was employed. Coupons of Ti-mPEG were then exposed to vapor of […] to yield the surface-bound complex. The complex modified coupons were then treated with a solution of 6-maleimidohexanoic acid in THF and were then rinsed thoroughly, and analyzed via IR (vCO≈1705 cm^−1). The coupons were then placed in a solution of N-(5-dimethylamino-1-naphthyl-sulfonyl)-RGDC (DANSYL-RGDC), then rinsed thoroughly, and probed via IR (vpeptide-CO≈1650-1690 cm^−1). The DANSYL group provides a fluorescent “tag” with which to monitor hydrolysis of the surface.\nFluorophore-labeled coupons were immersed in water at about pH 7.5. Fluorescence intensity of the supernatant was measured over about 90 hours; a calibration curve of DANSYL-RGDC was also prepared to relate concentrations in solution with fluorescence intensity, according to Beer's Law. […] Fluorescence intensity in the supernatant was measured against a second calibration curve of DANSYL-RGDC at about pH 12, and the solution concentration was determined by Beer's Law. […] At this point, the DANSYL-RGDC remaining on the surface was measured by exposing the coupon to strong alkaline (about pH 12) for about 3 hours to cleave any remaining zirconium complex species from the SAM. […]"}, "[5]": {"experiment": "Solvent rinsing and tape peel testing of coatings (IR/DRIFT)", "type": "physicochemical", "conditions": "aerosol in THF, room temperature, no heating", "description": "Coupons which had been treated were rinsed several times with deposition solvent and, where appropriate, ethanol and/or water, to remove soluble residues. A piece of tape (e.g., 3M red Scotch™ “650” tape or Scotch Masking Tape #234; 37 oz./in. adhesion to steel) was adhered to the derivatized surface of the solvent washed foil sample and quickly removed. The freshly “peeled” coupon was then analyzed again by DRIFT spectroscopy.\nSamples of coupons of aluminum, iron, and titanium, prepared as described above, were treated with an aerosol of n-octadecanephosphonic acid in tetrahydrofuron (THF) at room temperature in the ambient environment. Following the spray application of the acid solution the solvent was allowed to evaporate at ambient temperature and the derivatized surfaces of the coupons were analyzed by FTIR. The surfaces where then washed with THF and analyzed both before and after a peel test using red Scotch™ “650” tape."}}}
{"compound": "(cyclo)-1,6 acetyl-CRGDF-penicillamine-NH2", "values": [{"measurement": "Stability relative to linear RGDF", "setting": "[1]", "value": 30, "unit": "times"}]}
{"compound": "cyclic (RGDFV-)", "values": [{"measurement": "Specificity towards αvβ3 integrins relative to linear GRGDSPK", "setting": "αvβ3 integrins", "value": "over 100 times"}]}
{"compound": "CCCCCCCCCCCCCCCCCC[Si](C)(C)Cl", "note": "[octadecyldimethylchlorosilane]", "values": [{"measurement": "Surface hydrolysis of coated powders (in words)", "setting": "[2]", "value": "almost total surface hydrolysis"}]}
{"compound": "Arg-Gly-Asp-Cys (RGDC; printed: Arg-Gly-Asp-Cys) [cysteine modified fibronectin cell attachment peptide]", "values": [{"measurement": "RGDC loadings on SAMs of 11-hydroxyphosphonate on Ti", "setting": "[3]", "value": "~0.52", "unit": "nmol/cm^2"}]}
{"compound": "N-(5-dimethylamino-1-naphthyl-sulfonyl)-RGDC [DANSYL-RGDC]", "values": [{"measurement": "Surface loading of DANSYL-RGDC stable at about pH 7.5", "setting": "[4]", "value": "about 0.58 nmol/cm^2"}]}
{"compound": "CCCCCCCCCCCCCCCCCCP(=O)(O)O", "note": "[octadecylphosphonic acid]", "values": [{"measurement": "Persistence of phosphonic acid layer after washing and peel test, aluminum native oxide", "setting": "[5]", "value": "survives washing, but not peel testing"}, {"measurement": "Persistence of phosphonic acid layer after washing and peel test, iron native oxide", "setting": "[5]", "value": "survives both washing and peel testing"}, {"measurement": "Persistence of phosphonic acid layer after washing, titanium native oxide", "setting": "[5]", "value": "readily removed by washing with the deposition solvent"}, {"measurement": "Bound material lost from the surface of TiO2", "setting": "[2]; neutral pH", "value": 16, "unit": "%"}, {"measurement": "Bound material lost from the surface of ZrO2", "setting": "[2]; neutral pH", "value": 5, "unit": "%"}]}
